Among the data in US7718647B2, “Substituted azepine derivatives as serotonin receptor modulators” (Athersys, Inc., priority 2004, dated 2010) are EC50 values, retold here.

Some results are limits rather than exact numbers.

This assay concerns the target T1, human 5HT2c receptor (Homo sapiens, UniProt P28335, I156V/I160V, form not given).
T1 sequence (P28335 1-458 I156V/N158S/I160V): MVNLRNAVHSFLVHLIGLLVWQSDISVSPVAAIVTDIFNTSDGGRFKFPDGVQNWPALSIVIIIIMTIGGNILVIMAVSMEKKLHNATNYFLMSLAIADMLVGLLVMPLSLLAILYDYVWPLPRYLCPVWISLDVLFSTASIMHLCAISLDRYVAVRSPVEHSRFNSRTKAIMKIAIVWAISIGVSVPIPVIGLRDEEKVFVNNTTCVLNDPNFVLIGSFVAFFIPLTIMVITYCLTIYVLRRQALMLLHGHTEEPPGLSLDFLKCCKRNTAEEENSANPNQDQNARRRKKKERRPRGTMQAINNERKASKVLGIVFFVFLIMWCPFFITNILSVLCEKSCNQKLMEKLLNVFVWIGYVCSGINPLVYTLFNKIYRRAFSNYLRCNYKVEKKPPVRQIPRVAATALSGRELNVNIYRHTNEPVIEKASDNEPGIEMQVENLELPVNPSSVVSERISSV
In words: Calcium mobilization (FLIPR) 5HT2c receptor agonist assay in HEK 293 EBNA cells. It counts as cell-based. The note with it: agonist-stimulated calcium release, HEK 293 EBNA cells expressing human 5HT2c receptor, read-out: 5-HT2c EC50 (hVSV).
For `CC1CNCCc2cc(Cl)sc21` (racemic) [Example 31, (R,S)-2-Chloro-8-methyl-5,6,7,8-tetrahydro-4H-thieno[2,3-d]azepine], the EC50 (in general, the concentration that produces a half-maximal response) is under 100 nM.

Take `COC1CNCCc2sc(Br)cc21` (racemic) [Example 33, (R,S)-2-Bromo-4-methoxy-5,6,7,8-tetrahydro-4H-thieno[2,3-d]azepine]: the EC50 is under 1000 nM.

As for `CCC1CNCCc2sc(Br)cc21` (racemic) [Example 35, (R,S)-2-Bromo-4-ethyl-5,6,7,8-tetrahydro-4H-thieno[2,3-d]azepine], the EC50 is under 100 nM.

Consider `Cc1sc2c3c1CCC3CNCC2` (racemic) [Example 38, (R,S)-2-Methyl-4,4a,5,6,7,8-hexahydro-3H-1-thia-6-aza-cyclopenta[cd]azulene], for which the EC50 was under 1000 nM.

As for `CC1CNCCc2sc(Br)c(Br)c21` (single isomer, unassigned) [32, Enantiomer 1], the EC50 was under 10000 nM.

In the case of `CC1CNCCc2sc(Br)c(Br)c21` (single isomer, unassigned) [32, Enantiomer 2], the EC50 was under 100 nM.

With `Cc1c(Br)sc2c1C(C)CNCC2` (single isomer, unassigned) [36, Enantiomer 1], the EC50 is over 10000 nM.

On to `Cc1c(Br)sc2c1C(C)CNCC2` (single isomer, unassigned) [36, Enantiomer 2], for which the EC50 was under 1000 nM.

For `Brc1sc2c3c1CCC3CNCC2` (single isomer, unassigned) [37, Enantiomer 1], the EC50 was under 1000 nM.

As for `Brc1sc2c3c1CCC3CNCC2` (single isomer, unassigned) [37, Enantiomer 2], the EC50 is under 100 nM.

Turning to `CC(C)(C)c1sc2c3c1CCC3CNCC2` (single isomer, unassigned) [39, Enantiomer 1], the concentration for a half-maximal effect (EC50) is under 100 nM.

Take `CC(C)(C)c1sc2c3c1CCC3CNCC2` (single isomer, unassigned) [39, Enantiomer 2]: the EC50 was under 10 nM.

Turning to `Brc1cc2c(s1)CCNCC2` [Example 1, 2-Bromo-5,6,7,8-tetrahydro-4H-thieno[2,3-d]azepine], the EC50 is under 10 nM.

Consider `Clc1cc2c(s1)CCNCC2` [Example 2, 2-Chloro-5,6,7,8-tetrahydro-4H-thieno[2,3-d]azepine], for which the EC50 was under 100 nM.

As for `Brc1sc2c(c1Br)CCNCC2` [Example 3, 2,3-Dibromo-5,6,7,8-tetrahydro-4H-thieno[2,3-d]azepine], the EC50 is under 10 nM.

Turning to `Clc1sc2c(c1Cl)CCNCC2` [Example 4, 2,3-Dichloro-5,6,7,8-tetrahydro-4H-thieno[2,3-d]azepine], the EC50 is under 10 nM.

`Clc1c(Br)sc2c1CCNCC2` [Example 5, 2-Bromo-3-chloro-5,6,7,8-tetrahydro-4H-thieno[2,3-d]azepine]: the concentration giving a half-maximal response (EC50) was under 10 nM.

In the case of `FC(F)(F)Oc1ccc(-c2cc3c(s2)CCNCC3)cc1` [Example 6, 2-(4-Trifluoromethoxy-phenyl)-5,6,7,8-tetrahydro-4H-thieno[2,3-d]azepine], the EC50 was over 10000 nM.

With `FC(F)(F)c1ccccc1-c1cc2c(s1)CCNCC2` [Example 7, 2-(2-Trifluoromethyl-phenyl)-5,6,7,8-tetrahydro-4H-thieno[2,3-d]azepine], the EC50 is over 10000 nM.

For the compound `Fc1ccc(-c2cc3c(s2)CCNCC3)cc1` [Example 8, 2-(4-Fluoro-phenyl)-5,6,7,8-tetrahydro-4H-thieno[2,3-d]azepine], the EC50 was under 10000 nM.

Regarding `Fc1ccc(-c2cc3c(s2)CCNCC3)cc1Cl` [Example 9, 2-(3-Chloro-4-fluoro-phenyl)-5,6,7,8-tetrahydro-4H-thieno[2,3-d]azepine], the EC50 was over 10000 nM.

Turning to `Clc1ccc(Cl)c(-c2cc3c(s2)CCNCC3)c1` [Example 10, 2-(2,5-Dichloro-phenyl)-5,6,7,8-tetrahydro-4H-thieno[2,3-d]azepine], the EC50 is over 10000 nM.

Consider `CCc1ccc(-c2cc3c(s2)CCNCC3)cc1` [Example 11, 2-(4-Ethyl-phenyl)-5,6,7,8-tetrahydro-4H-thieno[2,3-d]azepine], for which the EC50 was over 10000 nM.

Take `COc1cccc(-c2cc3c(s2)CCNCC3)c1` [Example 12, 2-(3-Methoxy-phenyl)-5,6,7,8-tetrahydro-4H-thieno[2,3-d]azepine]: the EC50 is under 10000 nM.

As to `c1ccc(-c2cc3c(s2)CCNCC3)cc1` [Example 13, 2-Phenyl-5,6,7,8-tetrahydro-4H-thieno[2,3-d]azepine], the EC50 is under 10000 nM.

Turning to `Fc1cccc(Cl)c1Cc1cc2c(s1)CCNCC2` [Example 14, 2-(2-Chloro-6-fluoro-benzyl)-5,6,7,8-tetrahydro-4H-thieno[2,3-d]azepine], the EC50 was under 1000 nM.

Consider `Fc1cccc(Cl)c1Cc1sc2c(c1Br)CCNCC2` [Example 15, 3-Bromo-2-(2-chloro-6-fluoro-benzyl)-5,6,7,8-tetrahydro-4H-thieno [2,3-d]azepine], for which the half-maximal effective concentration (EC50) is under 10000 nM.

As to `Cc1c(Br)sc2c1CCNCC2` [Example 16, 2-Bromo-3-methyl-5,6,7,8-tetrahydro-4H-thieno[2,3-d]azepine], the EC50 was under 10 nM.

As for `COc1c(C)sc2c1CCNCC2` [Example 17, 3-Methoxy-2-methyl-5,6,7,8-tetrahydro-4H-thieno[2,3-d]azepine], the concentration for a half-maximal effect (EC50) was under 10 nM.

As to `COc1c(Br)sc2c1CCNCC2` [Example 18, 2-Bromo-3-methoxy-5,6,7,8-tetrahydro-4H-thieno[2,3-d]azepine], the concentration giving a half-maximal response (EC50) was under 10 nM.

As to `COc1c(Cl)sc2c1CCNCC2` [Example 19, 2-Chloro-3-methoxy-5,6,7,8-tetrahydro-4H-thieno[2,3-d]azepine], the half-maximal effective concentration (EC50) is under 1000 nM.

Turning to `C=C(C)c1sc2c(c1OC)CCNCC2` [Example 20, 2-Isopropenyl-3-methoxy-5,6,7,8-tetrahydro-4H-thieno[2,3-d]azepine], the EC50 is under 10 nM.

For the compound `Cc1c(C(C)(C)C)sc2c1CCNCC2` [Example 21, 2-tert-Butyl-3-methyl-5,6,7,8-tetrahydro-4H-thieno[2,3-d]azepine], the EC50 was under 100 nM.

In the case of `COc1c(C(C)C)sc2c1CCNCC2` [Example 22, 2-Isopropyl-3-methoxy-5,6,7,8-tetrahydro-4H-thieno[2,3-d]azepine], the EC50 is under 10 nM.

`Brc1cc2c(s1)C1(CC1)CNCC2` [Example 25, 2-Bromo-8-spirocyclopropyl-5,6,7,8-tetrahydro-4H-thieno[2,3-d]azepine]: the EC50 is under 1000 nM.

On to `O=S(=O)(c1cc2c(s1)CCNCC2)N1CCCC1` [Example 26, 2-(Pyrrolidine-1-sulfonyl)-5,6,7,8-tetrahydro-4H-thieno[2,3-d]azepine], for which the EC50 was under 10 nM.

Turning to `CN(C)S(=O)(=O)c1cc2c(s1)CCNCC2` [Example 27, 5,6,7,8-Tetrahydro-4H-thieno[2,3-d]azepine-2-sulfonic acid dimethylamide], the EC50 was under 10 nM.

Turning to `Cc1c(S(=O)(=O)N(C)C)sc2c1CCNCC2` [Example 28, 3-Methyl-5,6,7,8-tetrahydro-4H-thieno[2,3-d]azepine-2-sulfonic acid dimethylamide], the EC50 was under 10 nM.

Consider `O=C(NC1CCCC1)c1cc2c(s1)CCNCC2` [Example 29, 5,6,7,8-Tetrahydro-4H-thieno[2,3-d]azepine-2-carboxylic acid cyclopentylamide], for which the EC50 is under 10000 nM.
